Among the test systems are M14 melanoma; SN12C renal; HOP-92 NSCLC; SW-620 colon; MDA-MB-231 breast; UACC-257 melanoma; NCI-H226 lung; OVCAR-4 ovarian; COLO 205 colon; A549 NSCLC.
Holding throughout (assay): DTP human tumour cell line panel, 48 h

“And” between values parts separate entries of the source, which are not always exact repeats. Identical values can stand only once.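 All cell lines were grown in 96-well plates and treated with compound for 48 hours. GI50 = concentration required for 50% inhibition of growth. The concentration for full growth arrest is given as TGI.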

For the molecule `C=C1CC2(C[C@@H](c3ccccc3)O[C@@H](c3ccccc3)C2)OC1=O` (stereo partly drawn), the TGI in the experiment on M14 melanoma was found to be 3.34 µM; with SN12C renal it was 9.62 µM; with HOP-92 NSCLC, 9.81 µM; with SW-620 colon it was 3.95 µM; with MDA-MB-231 breast, 4.58 µM; with UACC-257 melanoma, 10.8 µM. Further, the TGI came to 32 µM in the experiment with NCI-H226 lung, 13.5 µM in the experiment with OVCAR-4 ovarian, 4.45 µM with COLO 205 colon and 13.4 µM in the experiment on A549 NSCLC.

For the molecule `CC1=CCC(OC(=O)C(C)(C)CCC(O)(C(=O)OC2(C(C)C)CCC3(C)OC3C2)C(C)C)(C(C)C)CC1` (stereo not drawn), the GI50 in the experiment with M14 melanoma is 0.654 µM; in the experiment with SN12C renal, 0.124 µM; in the experiment on HOP-92 NSCLC, 0.371 µM; with SW-620 colon it was 0.34 µM; in the experiment on MDA-MB-231 breast it was 0.643 µM; with UACC-257 melanoma, 0.727 µM. Moreover, the GI50 with NCI-H226 lung is 0.693 µM; with OVCAR-4 ovarian, 0.608 µM; in the experiment with COLO 205 colon, 0.496 µM; in the experiment on A549 NSCLC, 0.279 µM. Further, the TGI in the experiment with M14 melanoma is 1.46 µM; in the experiment with SN12C renal, 0.532 µM; with HOP-92 NSCLC it was 1.57 µM; with SW-620 colon, 1.13 µM; in the experiment with MDA-MB-231 breast, 1.39 µM; with UACC-257 melanoma, 1.5 µM. Also, the TGI in the experiment with NCI-H226 lung turned out to be 1.85 µM; with OVCAR-4 ovarian, 1.87 µM; in the experiment with COLO 205 colon, 1.59 µM; in the experiment with A549 NSCLC, 1.16 µM.

Regarding `CCCCCCCCCCC(O)[C@H]1CCC(C2CC[C@H]([C@H](O)CCCCCCCCCCC(O)CC3=CC(C)OC3=O)O2)O1` (stereo partly drawn), the GI50 is 7 µM with M14 melanoma; 1.76 µM in the experiment with SN12C renal; 2.51 µM in the experiment on SW-620 colon; 2.17 µM in the experiment on COLO 205 colon; 2.96 µM with A549 NSCLC. Further, the TGI in the experiment on HOP-92 NSCLC was 5.87 µM and 6.72 µM; with SW-620 colon, 6.83 µM and 12 µM; in the experiment on MDA-MB-231 breast, 4.23 µM; in the experiment on UACC-257 melanoma it was 4.83 µM and 5.13 µM; with NCI-H226 lung, 2.57 µM and 3.36 µM; with OVCAR-4 ovarian, 11.7 µM. The TGI in the experiment with COLO 205 colon is 2.84 µM and 5.12 µM; in the experiment on A549 NSCLC, over 100 µM.

Turning to `O=C1c2ccc3c4c5ccc(c24)C(=O)N1CCCOCCCCOCCCNCc1ccc(cc1)CNCCCOCCCCOCCCN(C3=O)C5=O`, the GI50 in the experiment with M14 melanoma was 0.923 µM; in the experiment on SN12C renal, 0.816 µM; in the experiment with HOP-92 NSCLC it was 0.782 µM; with SW-620 colon, 0.964 µM; in the experiment on MDA-MB-231 breast, 1.07 µM; with UACC-257 melanoma, 0.989 µM. In addition, the GI50 with NCI-H226 lung was 1.77 µM; in the experiment on OVCAR-4 ovarian, 0.567 µM; in the experiment on COLO 205 colon, 0.531 µM; in the experiment with A549 NSCLC, 1.01 µM. Also, the TGI in the experiment with M14 melanoma came to 1.75 µM; in the experiment with SN12C renal it was 1.53 µM; in the experiment on HOP-92 NSCLC it was 2.08 µM; in the experiment with SW-620 colon, 2.06 µM; in the experiment on MDA-MB-231 breast, 2.98 µM; in the experiment on UACC-257 melanoma, 1.98 µM. For the same molecule, the TGI with NCI-H226 lung came out at 6.58 µM; with OVCAR-4 ovarian it was 1.18 µM; in the experiment with COLO 205 colon, 1.26 µM; with A549 NSCLC, 2.07 µM.

For `c1cc(CCN2CCCCC2)ccn1`, the TGI with M14 melanoma, with SN12C renal, with HOP-92 NSCLC, in the experiment with SW-620 colon, in the experiment with MDA-MB-231 breast and in the experiment on UACC-257 melanoma was over 100 µM throughout. The TGI in the experiment on NCI-H226 lung, with OVCAR-4 ovarian, with COLO 205 colon and in the experiment on A549 NSCLC was over 100 µM each time.

Consider `C[C@]12CC[C@@H]3c4ccc(O)cc4CC[C@H]3[C@@H]1CC[C@@H]2NS(=O)(=O)c1cccc(C(F)(F)F)c1`, for which the GI50 in the experiment with M14 melanoma is 3.88 µM; in the experiment on SN12C renal it was 2.19 µM; in the experiment on HOP-92 NSCLC, 1.94 µM; with SW-620 colon it was 3.72 µM; with MDA-MB-231 breast it was 2.39 µM; with UACC-257 melanoma it was 3.54 µM. In addition, the GI50 with NCI-H226 lung was 3.88 µM; with OVCAR-4 ovarian, 2.95 µM; with COLO 205 colon, 2.12 µM; with A549 NSCLC it was 3.23 µM. Also, the TGI came out at 13.9 µM with M14 melanoma; 5.97 µM in the experiment on SN12C renal; 7.81 µM with HOP-92 NSCLC; 15.6 µM in the experiment on SW-620 colon; 6.77 µM in the experiment with MDA-MB-231 breast; 15.7 µM in the experiment on UACC-257 melanoma. Further, the TGI was 17.2 µM in the experiment with NCI-H226 lung, 12.4 µM in the experiment with OVCAR-4 ovarian, 4.13 µM in the experiment on COLO 205 colon and 12.8 µM in the experiment with A549 NSCLC.

With `Cc1nc2sc(C(=O)Nc3cccc4ccccc34)c(N)c2cc1C(=O)/C=C/c1ccccc1`, the GI50 is 0.181 µM in the experiment on M14 melanoma; 0.415 µM in the experiment with SN12C renal; 0.37 µM in the experiment on HOP-92 NSCLC; 0.21 µM in the experiment with SW-620 colon; 0.709 µM in the experiment on MDA-MB-231 breast; 5.09 µM with UACC-257 melanoma. The GI50 was 0.389 µM in the experiment with NCI-H226 lung, 1.02 µM with OVCAR-4 ovarian, 0.957 µM in the experiment with COLO 205 colon and 0.463 µM in the experiment on A549 NSCLC. Further, the TGI in the experiment on M14 melanoma was 1.68 µM; in the experiment on SN12C renal, 1.88 µM; with HOP-92 NSCLC, 8.97 µM; in the experiment with SW-620 colon it was 1.66 µM; in the experiment with MDA-MB-231 breast, 2.61 µM; in the experiment with UACC-257 melanoma, over 30.3 µM. The TGI in the experiment with NCI-H226 lung was 1.56 µM; with OVCAR-4 ovarian, over 15.7 µM; in the experiment on COLO 205 colon, 2.64 µM; in the experiment with A549 NSCLC, over 50 µM.

Regarding `Cn1c(=O)c(Oc2ccc(F)cc2F)cc2cnc(NC(CO)CO)nc21`, the GI50 was over 25 µM with M14 melanoma; over 25 µM with SN12C renal; 14.7 µM in the experiment with HOP-92 NSCLC; over 25 µM in the experiment on SW-620 colon; over 25 µM with MDA-MB-231 breast; over 25 µM in the experiment with UACC-257 melanoma. For the same molecule, the GI50 with NCI-H226 lung, with OVCAR-4 ovarian, with COLO 205 colon and in the experiment with A549 NSCLC was over 25 µM throughout. The TGI in the experiment on M14 melanoma, in the experiment on SN12C renal, in the experiment on HOP-92 NSCLC, in the experiment with SW-620 colon, in the experiment with MDA-MB-231 breast and in the experiment with UACC-257 melanoma was over 25 µM in each case. Also, the TGI with NCI-H226 lung, in the experiment with OVCAR-4 ovarian, in the experiment on COLO 205 colon and in the experiment on A549 NSCLC was over 25 µM in each case.

The values above are taken from PubChem BioAssay (NCI).
